Data taken from patent publication US20220016215A1, “GIP RECEPTOR AGONIST PEPTIDE COMPOUNDS AND USES THEREOF” (TAKEDA PHAARMACEUTICAL COMPANY LIMITED, priority 2018, published 2022).
Marks after values point to notes of the source that are not given here.

How the values were obtained:
[1] = molecular target: T1, human GIPR (Homo sapiens, UniProt P48546); assay: Agonist activity on human GIPR, CRE-luciferase reporter assay (increase in intracellular cAMP as indicator); format: cell-based; settings: GLP1R EC50 / GIPR EC50
T1 construct: expressed in transfected cells
T1 sequence (P48546 22-466): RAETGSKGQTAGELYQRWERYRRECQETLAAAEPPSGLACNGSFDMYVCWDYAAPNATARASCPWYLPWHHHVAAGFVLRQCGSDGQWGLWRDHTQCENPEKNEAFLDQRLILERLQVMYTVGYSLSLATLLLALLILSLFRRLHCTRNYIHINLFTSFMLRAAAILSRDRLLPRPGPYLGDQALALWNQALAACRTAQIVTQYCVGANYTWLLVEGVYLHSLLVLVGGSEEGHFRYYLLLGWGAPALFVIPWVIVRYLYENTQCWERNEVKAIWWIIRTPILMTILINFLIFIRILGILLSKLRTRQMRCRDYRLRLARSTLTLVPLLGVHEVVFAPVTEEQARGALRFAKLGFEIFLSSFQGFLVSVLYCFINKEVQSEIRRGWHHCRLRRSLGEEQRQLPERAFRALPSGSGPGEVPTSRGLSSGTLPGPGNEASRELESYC
Text: The human GIPR gene having an identical sequence to Genebank Accession No. U39231 is cloned into a pMSRα-neo vector to prepare hGIPR/pMSRα-neo.
(2) Construction of Reporter Plasmid Expressing Cell
Luciferase reporter gene with a cAMP-responsive sequence located upstream is transferred to a CHO-K1 cell to construct a CRE-LUC/CHO-K1 cell.
(4) Transfer of Human GIPR Gene to CRE-LUC/CHO-K1 Cell and Obtaining of Expressing Cell
The plasmid hGIPR/pMSRα-neo obtained in (1) is transferred to the CRE-LUC/CHO-K1 cell obtained in (2) to obtain a transformant. Subsequently, the cell line inducing the luciferase expression, hGIPR/CRE-LUC/CHO-K1 cell, is selected from the obtained transformant by adding GIP.
25 μL each of the hGIPR/CRE-LUC/CHO-K1 cell is inoculated in a 384-well white plate (Corning) in such a way as to provide 5×10^3 cells/well and may be cultured in a HamF12 medium containing 10% fetal bovine serum, 100 U/mL penicillin, and 100 μg/mL streptomycin in a CO2 incubator at 37° C. overnight. 5 μL of a medium containing a test compound is added to the cells and incubated for 4 hours at the indicated concentration in a CO2 incubator at 37° C. Steady-Glo (Promega) is added in amounts of 30 μL and shaken under light shielding. Twenty minutes later, luciferase activity is measured using a plate reader Envision (PerkinElmer). The GIPR agonist activity is calculated with increase in intracellular cAMP concentration as the indicator when the luciferase activity in the presence of 10 nM of GIP was 100% and the luciferase activity in the case of adding DMSO instead of the test compound was 0%.

[2] = test system: morphine (0.6 mg/kg, s.c.)-induced emesis in ferrets; assay: Morphine-induced acute emetic model in male ferrets; format: in vivo, ferret; settings: for Comment: Anti-Emetic Activity (inhibition) on morphine-induced emesis: summary of the morphine experiments
Summary of the method: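 Male ferrets (4 per group) received peptide at 10 or 30 nmol/kg s.c. in 0.09% Tween 80/10% DMSO/saline, or vehicle. Morphine 0.6 mg/kg s.c. was given 4 or 120 h later, and abdominal contractions, vomiting, licking and fidgeting were recorded for up to 360 min.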

[3] = test system: Y2R agonist-induced emesis in dogs; format: in vivo, dog; settings: 30 nmol/kg s.c.
Description: Example 8 PYY-1119-Induced Vomiting in Dogs
Emetic episodes were counted for 2 hours after administration (by blinded analysis).
Emetic episodes were counted for 2 hours after Y2R agonist administration (by blinded analysis).

[4] = ferret, morphine 0.6 mg/kg s.c. 4 h after drug, 1047 μg/kg s.c.
[5] = ferret, morphine 0.6 mg/kg s.c. 4 h after drug, 1047 μg/kg s.c., non-responders counted as 30 min
[6] = male ferrets, 30 nmol/kg s.c., morphine 0.6 mg/kg s.c. 4 hours after administration
[7] = female beagle dogs, Y2R agonist 10 μg/kg s.c. at 8 hours postdose
[8] = female beagle dogs, Y2R agonist 10 μg/kg s.c. at 8 hours postdose, counted for 2 hours

With CCCCCCCCCCCCCCCC(=O)NCCCC[C@H](NC(=O)[C@H](Cc1c[nH]c2ccccc12)NC(=O)[C@H](CC(=O)O)NC(=O)[C@H](CC(N)=O)NC(=O)[C@H](CCCCN)NC(=O)[C@H](CCCCN)NC(=O)CNC(=O)[C@H](CCCCN)NC(=O)[C@H](CCC(N)=O)NC(=O)[C@H](C)NC(=O)[C@H](CC(C)C)NC(=O)[C@H](CC(C)C)NC(=O)[C@H](Cc1c[nH]c2ccccc12)NC(=O)[C@H](CC(N)=O)NC(=O)[C@@H](NC(=O)[C@H](Cc1ccccc1)NC(=O)[C@H](CC(=O)O)NC(=O)[C@H](CCC(N)=O)NC(=O)[C@H](CCC(N)=O)NC(=O)[C@H](Cc1c[nH]cn1)NC(=O)[C@@H](NC(=O)[C@H](CCCCN)NC(=O)[C@H](CC(=O)O)NC(=O)[C@H](CCSC)NC(=O)[C@H](C)NC(=O)[C@@H](NC(=O)[C@H](CO)NC(=O)[C@H](Cc1ccc(O)cc1)NC(=O)[C@H](CC(=O)O)NC(=O)[C@H](CO)NC(=O)[C@@H](NC(=O)[C@H](Cc1ccccc1)NC(=O)[C@@H](NC(=O)CNC(=O)[C@H](CCC(=O)O)NC(=O)[C@@H](C)NC(=O)[C@@H](N)Cc1ccc(O)cc1)[C@@H](C)O)[C@@H](C)CC)[C@@H](C)CC)[C@@H](C)CC)C(C)C)C(=O)N[C@@H](Cc1c[nH]cn1)C(=O)N[C@@H](CC(N)=O)C(=O)N[C@H](C(=O)N[C@H](C(=O)N[C@@H](CCC(N)=O)C(N)=O)[C@@H](C)CC)[C@@H](C)CC [Compound 2] the “Selectivity Ratio (B/A)” value [1] was 417, the “Emesis: Duration” value [2, 4] was 0.3 ± 0.6 min and the “Emesis: Frequency” value [2, 4] was 2.7 ± 4.6. The “Emesis: No. of animals (responder/used)” value [2, 4] was 1/3, the “Fidget: Duration” value [2, 4] was 0.3 ± 0.6 min and the “Fidget: Frequency” value [2, 4] was 0.3 ± 0.6. The “Fidget: No. of animals (responder/used)” value [2, 4] was 1/3, the “Licking: Duration” value [2, 4] was 0.0 ± 0.0 min and the “Licking: Frequency” value [2, 4] was 0.0 ± 0.0. The “Licking: No. of animals (responder/used)” value [2, 4] was 0/3 #, the “Retching: Duration” value [2, 4] was 0.3 ± 0.6 min and the “Retching: Frequency” value [2, 4] was 2.7 ± 4.6. For the same compound, the “Retching: No. of animals (responder/used)” value [2, 4] was 1/3, the “Vomiting: Duration” value [2, 4] was 0.0 ± 0.0 min and the “Vomiting: Frequency” value [2, 4] was 0.0 ± 0.0. For the same compound, the “Vomiting: No. of animals (responder/used)” value [2, 4] was 0/3, the “Emesis: Latency” value [2, 5] was 22.7 ± 12.7 min and the “Fidget: Latency” value [2, 5] was 22.7 ± 12.7 min. The “Licking: Latency” value [2, 5] was 30.0 ± 0.0 min, the “Retching: Latency” value [2, 5] was 22.7 ± 12.7 min and the “Vomiting: Latency” value [2, 5] was 30.0 ± 0.0 min. The “Attenuation of morphine-induced emesis (in words)” value ([2]; male ferrets, 30 nmol/kg s.c. 30 minutes before morphine 0.6 mg/kg s.c.) was “completely attenuated” and the “Comment: Anti-Emetic Activity (inhibition) on morphine-induced emesis” value ([2]; male ferrets) was “partial inhibition”.
With CCCCCCCCCCCCCCCC(=O)NCCCC[C@H](NC(=O)[C@H](CC(=O)O)NC(=O)[C@H](CCSC)NC(=O)[C@H](C)NC(=O)[C@@H](NC(=O)[C@H](CO)NC(=O)[C@H](Cc1ccc(O)cc1)NC(=O)[C@H](CC(=O)O)NC(=O)[C@H](CO)NC(=O)[C@@H](NC(=O)[C@H](Cc1ccccc1)NC(=O)[C@@H](NC(=O)CNC(=O)[C@H](CCC(=O)O)NC(=O)[C@H](C)NC(=O)[C@@H](N)Cc1ccc(O)cc1)[C@@H](C)O)[C@@H](C)CC)[C@@H](C)CC)C(=O)N[C@H](C(=O)N[C@@H](Cc1c[nH]cn1)C(=O)N[C@@H](CCC(N)=O)C(=O)N[C@@H](CCC(N)=O)C(=O)N[C@@H](CC(=O)O)C(=O)N[C@@H](Cc1ccccc1)C(=O)N[C@H](C(=O)N[C@@H](CC(N)=O)C(=O)N[C@@H](Cc1c[nH]c2ccccc12)C(=O)N[C@@H](CC(C)C)C(=O)N[C@@H](CC(C)C)C(=O)N[C@@H](C)C(=O)N[C@@H](CCC(N)=O)C(=O)N[C@@H](CCCCN)C(=O)NCC(=O)N[C@@H](CCCCN)C(=O)N[C@@H](CCCCN)C(=O)N[C@@H](CC(N)=O)C(=O)N[C@@H](CC(=O)O)C(=O)N[C@@H](Cc1c[nH]c2ccccc12)C(=O)N[C@@H](CCCCN)C(=O)N[C@@H](Cc1c[nH]cn1)C(=O)N[C@@H](CC(N)=O)C(=O)N[C@H](C(=O)N[C@H](C(=O)N[C@@H](CCC(N)=O)C(N)=O)[C@@H](C)CC)[C@@H](C)CC)C(C)C)[C@@H](C)CC [Compound 3] the “Selectivity Ratio (B/A)” value [1] was 447, the “Ferrets in which the vomiting symptom was observed (in words)” value ([2]; ferrets, morphine administered 4 hours after administration) was “all of the 4 ferrets” and the Duration of emesis [2, 6] was 5.5 ± 7.1 min. For the same compound, the Emetic episodes [2, 6] was 21.8 ± 19.2, the Latency period [2, 6] was 7.0 ± 2.9 min and the “No. of animals that did not vomit” value [2, 6] was 0. For the same compound, the “Emetic episodes, % Inhibition of mean value” ([2]; male ferrets, 30 nmol/kg s.c., morphine 0.6 mg/kg s.c. 4 hours after administration, vs vehicle) was “[−143%]” and the “Comment: Anti-Emetic Activity (inhibition) on morphine-induced emesis” value ([2]; male ferrets) was “partial inhibition”.
In the case of “YAibEGTFISDYSIALDK(Lys-(ethylene glycol)2-C15 diacid)HQQDFVNWLLAQRG-OH [Compound 26]”, the “Anti-emetic effects in animal models of emesis (dogs) (in words)” value ([3]; dogs, Tables 16 and 17) is reported as “significant anti-emetic effects”, the Duration of emesis [3, 7] is reported as 0.0 ± 0.0 min and the “Latency period of emesis” value [3, 7] is reported as 92.3 ± 55.5 min. The “No. of animals that did not vomit” value [3, 8] was 3, the “No. of emetic episodes” value [3, 8] was 0.3 ± 0.5 and the “No. of emetic episodes, % Inhibition” value ([3]; female beagle dogs, Y2R agonist at 8 hours postdose, decreased ratio of mean emetic episodes vs vehicle group) was “[96.6%]”. The “Selectivity Ratio (B/A)” value [1] was >100,000.
